How the values were obtained:
Assay in all cases: relative viability (nuclei count vs DMSO), 5 days (fraction); higher = more cells survive
Veliparib + Navitoclax = compound: C[C@]1(c2nc3c(C(N)=O)cccc3[nH]2)CCCN1 [Veliparib] + CC1(C)CCC(c2ccc(Cl)cc2)=C(CN2CCN(c3ccc(C(=O)NS(=O)(=O)c4ccc(N[C@H](CCN5CCOCC5)CSc5ccccc5)c(S(=O)(=O)C(F)(F)F)c4)cc3)CC2)C1 [Navitoclax] (partner 0.5 µM)
Outline: (§1)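 For relative viability, nuclei counts in treated wells were divided by those in vehicle wells. Lung cancer cell lines had been pin-tool dosed in 1536-well plates the day after seeding and cultured for 5 days, then fixed and stained in one step (final 0.05% Triton X-100, 1% formaldehyde, 1 ug/ml Hoechst) and imaged at 4×. Doses were one drug alone or a fixed anchor-drug dose plus five library-drug doses (not always all listed) in √10 steps, and values are duplicate-plate medians.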

[1] = compound: COC1=CC=C(C=C1)CN2C=CC3=C2C=C(C=C3)C(=O)NO + O=C(CCCCCCC(=O)Nc1ccccc1)NO [Vorinostat] (partner 1 µM)
Outline: as §1

[2] = compound: COC1=CC=C(C=C1)CN2C=CC3=C2C=C(C=C3)C(=O)NO + COc1cccc2cc(-c3nc([C@H]4CC[C@H](C(=O)O)CC4)n4ncnc(N)c34)[nH]c12 [OSI-027] (partner 0.5 µM)
Outline: as §1

Veliparib + Linsitinib = compound: C[C@]1(c2nc3c(C(N)=O)cccc3[nH]2)CCCN1 [Veliparib] + C[C@]1(O)C[C@@H](c2nc(-c3ccc4ccc(-c5ccccc5)nc4c3)c3c(N)nccn32)C1 [Linsitinib] (partner 1 µM)
Outline: as §1

| Cell Line | relative viability (Veliparib + Navitoclax; first compound 0.02 µM) | relative viability (Veliparib + Navitoclax; first compound 0.06325 µM) | relative viability (Veliparib + Navitoclax; first compound 0.2 µM) | relative viability (Veliparib + Navitoclax; first compound 0.6325 µM) | relative viability (Veliparib + Navitoclax; first compound 2 µM) | relative viability ([1]; first compound 0.08 µM) | relative viability ([1]; first compound 0.253 µM) | relative viability ([1]; first compound 0.8 µM) | relative viability ([1]; first compound 2.53 µM) | relative viability ([1]; first compound 8 µM) | relative viability ([2]; first compound 0.08 µM) | relative viability ([2]; first compound 0.253 µM) | relative viability ([2]; first compound 0.8 µM) | relative viability ([2]; first compound 8 µM) | relative viability (Veliparib + Linsitinib; first compound 0.02 µM) | relative viability (Veliparib + Linsitinib; first compound 0.06325 µM) | relative viability (Veliparib + Linsitinib; first compound 0.2 µM) | relative viability (Veliparib + Linsitinib; first compound 0.6325 µM) | relative viability (Veliparib + Linsitinib; first compound 2 µM) | relative viability ([2]; first compound 2.53 µM) |
| --- | --- | --- | --- | --- | --- | --- | --- | --- | --- | --- | --- | --- | --- | --- | --- | --- | --- | --- | --- | --- |
| 201T | 1.21 | 1.21 | 1.17 | 1.19 | 1.15 | 0.813 | 0.952 | 0.967 | 0.986 | 0.868 | 0.869 | 0.827 | 0.644 | 0.71 | 1.08 | 1.06 | 0.995 | 1.02 | 1.01 | – |
| A549 | 1.25 | 1.18 | 1.17 | 1.16 | 1.13 | – | – | – | – | – | – | – | – | – | 0.62 | 0.576 | 0.591 | 0.626 | 0.586 | – |
| A-427 | 1.05 | 0.795 | 0.93 | 0.938 | 0.893 | 0.694 | – | 0.826 | 0.847 | 0.794 | – | 0.44 | 0.497 | 0.367 | 1.21 | 1.05 | 1.04 | 1.03 | 1.14 | 0.492 |
| ABC-1 | – | – | – | – | – | – | 0.517 | 1.13 | 0.973 | 1.02 | – | 0.57 | 0.484 | 0.393 | – | 0.767 | 0.807 | 0.759 | 0.892 | 0.488 |
| BEN | 0.0726 | 0.0807 | 0.0698 | 0.0678 | 0.0746 | 0.566 | 0.566 | 0.591 | 0.543 | 0.548 | 0.27 | 0.296 | 0.288 | 0.291 | 0.803 | 0.875 | 1.15 | 0.928 | 0.946 | 0.318 |
| CAL-12T | 1.38 | 1.03 | 1.3 | 1.2 | 1.32 | 0.562 | 0.855 | 0.821 | 0.719 | 0.787 | 0.723 | 0.643 | 0.563 | 0.642 | 0.356 | 0.823 | 0.775 | 0.765 | 0.817 | 0.71 |
| COR-L23 | 1.15 | 0.957 | 0.899 | 0.86 | 0.999 | 0.273 | 0.456 | 0.455 | 0.518 | 0.502 | 0.647 | 0.829 | 0.795 | 0.686 | 1.1 | 0.886 | 0.9 | 0.656 | 0.816 | 0.772 |
| COR-L 105 | 0.688 | 0.817 | 0.712 | 0.615 | 0.928 | 0.489 | 0.802 | 0.828 | 0.815 | 0.63 | 0.524 | 0.738 | 0.753 | 0.445 | 0.984 | 0.86 | 0.982 | 0.915 | 0.915 | 0.626 |
| Calu-6 | 0.946 | 0.871 | 0.914 | 0.824 | 0.867 | – | – | – | – | – | – | – | – | – | 0.582 | 0.826 | 0.999 | 0.963 | 0.987 | – |
| ChaGo-K-1 | – | 0.833 | 1.08 | 1.06 | 0.85 | – | 0.837 | 0.772 | 0.706 | 0.558 | – | 0.623 | 0.675 | 0.378 | – | – | – | – | – | 0.504 |
| EBC-1 | 0.508 | 0.405 | 0.487 | 0.334 | 0.407 | – | – | – | – | – | – | – | – | – | 0.771 | 0.807 | 0.723 | 0.793 | 0.97 | – |
| EKVX | 0.814 | 0.974 | 0.884 | 0.891 | 0.819 | 0.646 | 0.843 | 0.803 | 0.897 | 0.672 | 0.669 | 0.653 | 0.72 | 0.64 | 0.948 | 0.912 | 0.952 | 0.86 | 1.02 | 0.72 |
| EMC-BAC-2 | 1.2 | 1.18 | 1.15 | 1.14 | 1.08 | 0.257 | – | 0.568 | 0.429 | 0.36 | 0.371 | 0.371 | 0.425 | 0.33 | 0.841 | 0.801 | 0.886 | 0.793 | 0.828 | 0.381 |
| EPLC-272H | – | 1.08 | 0.999 | 1.22 | 1.16 | – | 0.619 | 0.55 | 0.404 | 0.3 | 0.223 | – | 0.313 | 0.267 | – | 1.11 | 1.18 | 1.08 | 1.24 | 0.257 |
| H3255 | 0.479 | 0.445 | 0.537 | 0.477 | 0.518 | 0.34 | 0.739 | 0.842 | 0.849 | 0.731 | 0.473 | 0.58 | 0.606 | 0.553 | 0.882 | 0.981 | 0.953 | 0.833 | 0.981 | 0.545 |
| HARA | 1.17 | 1.09 | 1.1 | 1.08 | 1.15 | – | 0.6 | 0.484 | 0.677 | 0.59 | – | 0.522 | 0.535 | 0.42 | 1.15 | 0.992 | 0.908 | 0.743 | 1.07 | 0.553 |
| HCC-15 | 0.723 | 0.702 | 0.719 | 0.721 | 0.65 | 0.544 | 0.951 | 0.828 | 0.926 | 0.754 | 0.625 | 0.715 | 0.672 | 0.529 | 0.928 | 0.84 | 0.909 | 0.83 | 0.921 | 0.742 |
| HCC-44 | 1.05 | 0.846 | 1.02 | 0.798 | 0.967 | 1.09 | 1.06 | 1.18 | 1.14 | 1.12 | 0.465 | 0.453 | 0.498 | 0.454 | 0.665 | 0.5 | 0.636 | 0.622 | 0.694 | 0.554 |
